Test results reported in paper PMC10008561 (Nature Communications, 2023).
Several values for one entry are separate records, joined by “and”; a condition that tells them apart may be missing. Equal values may be shown once.

Assays:
Test in all cases: cell-based
human KOR (Gi1) [1] = molecular target: T1, human KOR (Gi1) (Homo sapiens, UniProt P41145)
T1 construct: expressed in transfected cells; host or cells: HEK293T

human KOR (Gi1) [2] = molecular target: T2, human KOR (Gi1) (Homo sapiens, UniProt P41145, D105A); conditions: HEK-293T
T2 construct: expressed in transfected cells; host or cells: HEK293T
T2 sequence (P41145 whole entry D105A): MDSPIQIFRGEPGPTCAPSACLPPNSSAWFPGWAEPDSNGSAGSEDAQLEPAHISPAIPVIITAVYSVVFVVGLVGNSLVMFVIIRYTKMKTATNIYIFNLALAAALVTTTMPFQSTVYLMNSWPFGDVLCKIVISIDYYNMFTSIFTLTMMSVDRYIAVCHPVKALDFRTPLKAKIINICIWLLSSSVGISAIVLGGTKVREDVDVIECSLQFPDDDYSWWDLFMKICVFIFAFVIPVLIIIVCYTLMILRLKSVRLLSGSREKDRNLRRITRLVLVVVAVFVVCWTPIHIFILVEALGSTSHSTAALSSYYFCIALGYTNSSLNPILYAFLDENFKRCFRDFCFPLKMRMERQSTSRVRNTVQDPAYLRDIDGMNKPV

human KOR (Gi1) [3] = molecular target: T3, human KOR (Gi1) (Homo sapiens, UniProt P41145, D155A); conditions: HEK-293T
T3 construct: expressed in transfected cells; host or cells: HEK293T
T3 sequence (P41145 whole entry D155A): as the sequence (P41145 whole entry D105A) above, with A105D, D155A counted along it

human KOR (Gi1) [4] = molecular target: T4, human KOR (Gi1) (Homo sapiens, UniProt P41145, D266A); conditions: HEK-293T
T4 construct: expressed in transfected cells; host or cells: HEK293T
T4 sequence (P41145 whole entry D266A): as the sequence (P41145 whole entry D105A) above, with A105D, D266A counted along it

human KOR (Gi1) [5] = molecular target: T5, human KOR (Gi1) (Homo sapiens, UniProt P41145, D334A); conditions: HEK-293T
T5 construct: expressed in transfected cells; host or cells: HEK293T
T5 sequence (P41145 whole entry D334A): as the sequence (P41145 whole entry D105A) above, with A105D, D334A counted along it

human KOR (Gi1) [6] = molecular target: T6, human KOR (Gi1) (Homo sapiens, UniProt P41145, F114L); conditions: HEK-293T
T6 construct: expressed in transfected cells; host or cells: HEK293T
T6 sequence (P41145 whole entry F114L): as the sequence (P41145 whole entry D105A) above, with A105D, F114L counted along it

human KOR (Gi1) [7] = molecular target: T7, human KOR (Gi1) (Homo sapiens, UniProt P41145, F283A); conditions: HEK-293T
T7 construct: expressed in transfected cells; host or cells: HEK293T
T7 sequence (P41145 whole entry F283A): as the sequence (P41145 whole entry D105A) above, with A105D, F283A counted along it

human KOR (Gi1) [8] = molecular target: T8, human KOR (Gi1) (Homo sapiens, UniProt P41145, G319L); conditions: HEK-293T
T8 construct: expressed in transfected cells; host or cells: HEK293T
T8 sequence (P41145 whole entry G319L): as the sequence (P41145 whole entry D105A) above, with A105D, G319L counted along it

human KOR (Gi1) [9] = molecular target: T9, human KOR (Gi1) (Homo sapiens, UniProt P41145, K200A); conditions: HEK-293T
T9 construct: expressed in transfected cells; host or cells: HEK293T
T9 sequence (P41145 whole entry K200A): as the sequence (P41145 whole entry D105A) above, with A105D, K200A counted along it

human KOR (Gi1) [10] = molecular target: T10, human KOR (Gi1) (Homo sapiens, UniProt P41145, L253A); conditions: HEK-293T
T10 construct: expressed in transfected cells; host or cells: HEK293T
T10 sequence (P41145 whole entry L253A): as the sequence (P41145 whole entry D105A) above, with A105D, L253A counted along it

human KOR (Gi1) [11] = molecular target: T11, human KOR (Gi1) (Homo sapiens, UniProt P41145, N141A); conditions: HEK-293T
T11 construct: expressed in transfected cells; host or cells: HEK293T
T11 sequence (P41145 whole entry N141A): as the sequence (P41145 whole entry D105A) above, with A105D, N141A counted along it

human KOR (Gi1) [12] = molecular target: T12, human KOR (Gi1) (Homo sapiens, UniProt P41145, N326A); conditions: HEK-293T
T12 construct: expressed in transfected cells; host or cells: HEK293T
T12 sequence (P41145 whole entry N326A): as the sequence (P41145 whole entry D105A) above, with A105D, N326A counted along it

human KOR (Gi1) [13] = molecular target: T13, human KOR (Gi1) (Homo sapiens, UniProt P41145, Q115N); conditions: HEK-293T
T13 construct: expressed in transfected cells; host or cells: HEK293T
T13 sequence (P41145 whole entry Q115N): as the sequence (P41145 whole entry D105A) above, with A105D, Q115N counted along it

human KOR (Gi1) [14] = molecular target: T14, human KOR (Gi1) (Homo sapiens, UniProt P41145, R170A); conditions: HEK-293T
T14 construct: expressed in transfected cells; host or cells: HEK293T
T14 sequence (P41145 whole entry R170A): as the sequence (P41145 whole entry D105A) above, with A105D, R170A counted along it

human KOR (Gi1) [15] = molecular target: T15, human KOR (Gi1) (Homo sapiens, UniProt P41145, R257A); conditions: HEK-293T
T15 construct: expressed in transfected cells; host or cells: HEK293T
T15 sequence (P41145 whole entry R257A): as the sequence (P41145 whole entry D105A) above, with A105D, R257A counted along it

human KOR (Gi1) [16] = molecular target: T16, human KOR (Gi1) (Homo sapiens, UniProt P41145, R271A); conditions: HEK-293T
T16 construct: expressed in transfected cells; host or cells: HEK293T
T16 sequence (P41145 whole entry R271A): as the sequence (P41145 whole entry D105A) above, with A105D, R271A counted along it

human KOR (Gi1) [17] = molecular target: T17, human KOR (Gi1) (Homo sapiens, UniProt P41145, R274A); conditions: HEK-293T
T17 construct: expressed in transfected cells; host or cells: HEK293T
T17 sequence (P41145 whole entry R274A): as the sequence (P41145 whole entry D105A) above, with A105D, R274A counted along it

human KOR (Gi1) [18] = molecular target: T18, human KOR (Gi1) (Homo sapiens, UniProt P41145, T94V); conditions: HEK-293T
T18 construct: expressed in transfected cells; host or cells: HEK293T
T18 sequence (P41145 whole entry T94V): as the sequence (P41145 whole entry D105A) above, with T94V, A105D counted along it

human KOR (Gi1) [19] = molecular target: T19, human KOR (Gi1) (Homo sapiens, UniProt P41145, Y139L); conditions: HEK-293T
T19 construct: expressed in transfected cells; host or cells: HEK293T
T19 sequence (P41145 whole entry Y139L): as the sequence (P41145 whole entry D105A) above, with A105D, Y139L counted along it

human KOR (Gi1) [20] = molecular target: T20, human KOR (Gi1) (Homo sapiens, UniProt P41145, Y320L); conditions: HEK-293T
T20 construct: expressed in transfected cells; host or cells: HEK293T
T20 sequence (P41145 whole entry Y320L): as the sequence (P41145 whole entry D105A) above, with A105D, Y320L counted along it

human KOR (Gi3) [21] = molecular target: T21, human KOR (Gi3) (Homo sapiens, UniProt P41145)
T21 construct: expressed in transfected cells; host or cells: HEK293T
T21 sequence (P41145 whole entry): as the sequence (P41145 whole entry D105A) above, with A105D counted along it

human KOR (Gi3) [22] = molecular target: T22, human KOR (Gi3) (Homo sapiens, UniProt P41145, D105A); conditions: HEK-293T
T22 construct: expressed in transfected cells; host or cells: HEK293T
T22 sequence (P41145 whole entry D105A): as the sequence (P41145 whole entry D105A) above

human KOR (Gi3) [23] = molecular target: T23, human KOR (Gi3) (Homo sapiens, UniProt P41145, D155A); conditions: HEK-293T
T23 construct: expressed in transfected cells; host or cells: HEK293T
T23 sequence (P41145 whole entry D155A): as the sequence (P41145 whole entry D105A) above, with A105D, D155A counted along it

human KOR (Gi3) [24] = molecular target: T24, human KOR (Gi3) (Homo sapiens, UniProt P41145, D334A); conditions: HEK-293T
T24 construct: expressed in transfected cells; host or cells: HEK293T
T24 sequence (P41145 whole entry D334A): as the sequence (P41145 whole entry D105A) above, with A105D, D334A counted along it

human KOR (Gi3) [25] = molecular target: T25, human KOR (Gi3) (Homo sapiens, UniProt P41145, E297A); conditions: HEK-293T
T25 construct: expressed in transfected cells; host or cells: HEK293T
T25 sequence (P41145 whole entry E297A): as the sequence (P41145 whole entry D105A) above, with A105D, E297A counted along it

human KOR (Gi3) [26] = molecular target: T26, human KOR (Gi3) (Homo sapiens, UniProt P41145, F283A); conditions: HEK-293T
T26 construct: expressed in transfected cells; host or cells: HEK293T
T26 sequence (P41145 whole entry F283A): as the sequence (P41145 whole entry D105A) above, with A105D, F283A counted along it

human KOR (Gi3) [27] = molecular target: T27, human KOR (Gi3) (Homo sapiens, UniProt P41145, K200A); conditions: HEK-293T
T27 construct: expressed in transfected cells; host or cells: HEK293T
T27 sequence (P41145 whole entry K200A): as the sequence (P41145 whole entry D105A) above, with A105D, K200A counted along it

human KOR (Gi3) [28] = molecular target: T28, human KOR (Gi3) (Homo sapiens, UniProt P41145, L253A); conditions: HEK-293T
T28 construct: expressed in transfected cells; host or cells: HEK293T
T28 sequence (P41145 whole entry L253A): as the sequence (P41145 whole entry D105A) above, with A105D, L253A counted along it

human KOR (Gi3) [29] = molecular target: T29, human KOR (Gi3) (Homo sapiens, UniProt P41145, N141A); conditions: HEK-293T
T29 construct: expressed in transfected cells; host or cells: HEK293T
T29 sequence (P41145 whole entry N141A): as the sequence (P41145 whole entry D105A) above, with A105D, N141A counted along it

human KOR (Gi3) [30] = molecular target: T30, human KOR (Gi3) (Homo sapiens, UniProt P41145, N326A); conditions: HEK-293T
T30 construct: expressed in transfected cells; host or cells: HEK293T
T30 sequence (P41145 whole entry N326A): as the sequence (P41145 whole entry D105A) above, with A105D, N326A counted along it

human KOR (Gi3) [31] = molecular target: T31, human KOR (Gi3) (Homo sapiens, UniProt P41145, Q115N); conditions: HEK-293T
T31 construct: expressed in transfected cells; host or cells: HEK293T
T31 sequence (P41145 whole entry Q115N): as the sequence (P41145 whole entry D105A) above, with A105D, Q115N counted along it

human KOR (Gi3) [32] = molecular target: T32, human KOR (Gi3) (Homo sapiens, UniProt P41145, R257A); conditions: HEK-293T
T32 construct: expressed in transfected cells; host or cells: HEK293T
T32 sequence (P41145 whole entry R257A): as the sequence (P41145 whole entry D105A) above, with A105D, R257A counted along it

human KOR (Gi3) [33] = molecular target: T33, human KOR (Gi3) (Homo sapiens, UniProt P41145, R274A); conditions: HEK-293T
T33 construct: expressed in transfected cells; host or cells: HEK293T
T33 sequence (P41145 whole entry R274A): as the sequence (P41145 whole entry D105A) above, with A105D, R274A counted along it

human KOR (Gi3) [34] = molecular target: T34, human KOR (Gi3) (Homo sapiens, UniProt P41145, Y139L); conditions: HEK-293T
T34 construct: expressed in transfected cells; host or cells: HEK293T
T34 sequence (P41145 whole entry Y139L): as the sequence (P41145 whole entry D105A) above, with A105D, Y139L counted along it

T1 sequence (P41145 whole entry): as the sequence (P41145 whole entry D105A) above, with A105D counted along it

## CN(C(=O)/C=C/c1ccoc1)[C@@H]1CC[C@@]2(O)[C@H]3Cc4ccc(O)c5c4[C@@]2(CCN3CC2CC2)[C@H]1O5 [Nalfurafine, nalfurafine]
Human KOR (Gi1) [1]
  Emax%: 101.1% and 100%
Human KOR (Gi1) [1]; HEK-293T
  Emax: 85 ± 7%
Human KOR (Gi1) [2]
  Emax: 94.3%
Human KOR (Gi1) [3]
  Emax: 79.1%
Human KOR (Gi1) [4]
  Emax: 106%
Human KOR (Gi1) [5]
  Emax: 77.5%
Human KOR (Gi1) [6]
  Emax: 65.5%
Human KOR (Gi1) [7]
  Emax: 77.6%
Human KOR (Gi1) [8]
  Emax: 116%
Human KOR (Gi1) [9]
  Emax: 96.1%
Human KOR (Gi1) [10]
  Emax: 106%
Human KOR (Gi1) [11]
  Emax: 101%
Human KOR (Gi1) [12]
  Emax: 108%
Human KOR (Gi1) [13]
  Emax: 77.3%
Human KOR (Gi1) [14]
  Emax: 58.7%
Human KOR (Gi1) [15]
  Emax: 99.5%
Human KOR (Gi1) [16]
  Emax: 105%
Human KOR (Gi1) [17]
  Emax: 100%
Human KOR (Gi1) [18]
  Emax: 99.2%
Human KOR (Gi1) [19]
  Emax: 96.7%
Human KOR (Gi1) [20]
  Emax: 76.3%
Human KOR (Gi3) [21]
  Emax%: 99.93%
Human KOR (Gi3) [21]; HEK-293T
  Emax: 100%
Human KOR (Gi3) [22]
  Emax: 81.7%
Human KOR (Gi3) [23]
  Emax: 77.8%
Human KOR (Gi3) [24]
  Emax: 101%
Human KOR (Gi3) [25]
  Emax: 100%
Human KOR (Gi3) [26]
  Emax: 74.8%
Human KOR (Gi3) [27]
  Emax: 93.1%
Human KOR (Gi3) [28]
  Emax: 104%
Human KOR (Gi3) [29]
  Emax: 107%
Human KOR (Gi3) [30]
  Emax: 106%
Human KOR (Gi3) [31]
  Emax: 78.7%
Human KOR (Gi3) [32]
  Emax: 100%
Human KOR (Gi3) [33]
  Emax: 98.8%
Human KOR (Gi3) [34]
  Emax: 96%
